Columns and labels:
Format in all cases: in vivo
[1] = test system: male turkeys; experiment: Effect of gonadoliberin analogues on the sperm production of male turkeys (Table 5)
Text: In a further experiment, the sperm production of male turkeys was raised by administering the following four compounds: […]

[2] = test system: blood plasma testosterone level; experiment: Blood plasma testosterone level of ganders (Table 6); settings: for Testosterone: Treated (n = 10)
Description: (§1) Ganders kept under large-scale conditions and propagated in a natural way were treated with 0.5 μg/kg of D-Phe^6,desGly^10 -GnRH ethylamide analogue every 2 days, altogether 3 times. […] This manifested itself in the rise of the copulation activity (Table 6).

[3] = test system: ganders; experiment: Copulation activity / libido of ganders (Table 6); settings: for No. of daily copulations: Treated (n = 10)
Description: as §1

[4] = test system: ganders; experiment: Sperm production and sperm quality of ganders kept under natural conditions (Table 7)
Description: "Hungarian" and "Landes" ganders kept under natural conditions and divided to small groups were treated with 0.5 μg/kg of D-Phe^6,desGly^10 -GnRH ethylamide analogue every 2 days, altogether 3 times.

[5] = test system: male angora rabbits; experiment: Enhancement of the sperm production of male rabbits; settings: 3 μg every 2 days, 3 times
Description: In this experiment male angora rabbits showing a low libido were used from which no sperm could be obtained. The motility of the cells in their sperm was lower than 75%; thus, these animals could not be used for propagating. Of these animals 234 were treated with 3 μg of D-Phe^6,desGly^10 -GnRH ethylamide analogue every 2 days, altogether 3 times. […] These effects could be observed for several weeks; thus, the amount of the sperm usable for artificial insemination increased to its 2.5-fold value.

[6] = at the beginning of the experiment
[7] = 0.5 μg/kg every 2 days, 3 times
[8] = "Hungarian" ganders, sampling February 7
[9] = "Hungarian" ganders, sampling February 14
[10] = "Hungarian" ganders, sampling February 21
[11] = "Hungarian" ganders, sampling February 28
[12] = "Hungarian" ganders, sampling January 15 (before treatment)
[13] = "Hungarian" ganders, sampling January 31
[14] = "Hungarian" ganders, sampling March 7
[15] = "Hungarian" ganders, sampling March 12
[16] = "Landes" ganders, sampling February 7
[17] = "Landes" ganders, sampling February 14
[18] = "Landes" ganders, sampling February 21
[19] = "Landes" ganders, sampling February 28
[20] = "Landes" ganders, sampling January 15 (before treatment)
[21] = "Landes" ganders, sampling January 31
[22] = "Landes" ganders, sampling March 7
[23] = "Landes" ganders, sampling March 12

In the case of “(Asp-α-anilide)^6,desGly^10 -GnRH [Compound "B"]”, the Sperm production ([1]; after 30 days) was 0.21 ml/animal, the Sperm production ([1]; after 60 days) was 0.28 ml/animal and the Sperm production [1, 6] was 0.18 ml/animal.
For `CCNC(=O)[C@@H]1CCCN1C(=O)[C@H](CCCNC(=N)N)NC(=O)[C@H](CC(C)C)NC(=O)[C@@H](Cc1ccccc1)NC(=O)[C@H](Cc1ccc(O)cc1)NC(=O)[C@H](CO)NC(=O)[C@H](Cc1c[nH]c2ccccc12)NC(=O)[C@H](Cc1c[nH]cn1)NC(=O)[C@@H]1CCC(=O)N1` [Compound "C", D-Phe^6,desGly^10 -GnRH ethylamide], the Sperm production ([1]; after 30 days) was 0.30 ml/animal, the Sperm production ([1]; after 60 days) was 0.32 ml/animal and the Sperm production ([1]; after 90 days) was 0.34 ml/animal. The Sperm production ([1]; after 120 days) was 0.30 ml/animal, the Sperm production [1, 6] was 0.21 ml/animal and the “blood plasma testosterone level (in words)” value [2, 7] was “significantly raised”. For the same compound, the Testosterone ([2]; sampling October 1) was 390 ± 78 pg/mL, the Testosterone ([2]; sampling September 3) was 378 ± 142 pg/mL and the Testosterone ([2]; sampling September 10) was 470 ± 133 pg/mL. The Testosterone ([2]; sampling September 17) was 879 ± 145 pg/mL, the Testosterone ([2]; sampling September 24) was 695 ± 125 pg/mL and the “libido of the animals” value [3, 7] was “significantly raised”. For the same compound, the “duration of the high copulation activity” value ([3]; 0.5 μg/kg, ganders) was “maintained at this high level for one additional month”, the “No. of daily copulations” value ([3]; October 1) was 10 and the “No. of daily copulations” value ([3]; September 3) was 9. For the same compound, the “No. of daily copulations” value ([3]; September 10) was 7, the “No. of daily copulations” value ([3]; September 17) was 12 and the “No. of daily copulations” value ([3]; September 24) was 13. For the same compound, the “duration of the sperm production increase” value ([4]; 0.5 μg/kg every 2 days, 3 times, "Hungarian" and "Landes" ganders) was “lasting for about one month and a half”, the Sperm ([4]; "Hungarian" ganders, 0.5 μg/kg on January 28, 30, February 1, sampling January 15 (before treatment)) was 0.19 mL and the “Motility of the spermatozoa” value [4, 8] was “good”. The No. of spermatozoa [4, 8] was 3.2 10^6 /mm^3, the “Ratio of dead + deficient cells” value [4, 8] was 8% and the Sperm [4, 8] was 0.48 mL. The “Motility of the spermatozoa” value [4, 9] was “good”, the No. of spermatozoa [4, 9] was 3.0 10^6 /mm^3 and the “Ratio of dead + deficient cells” value [4, 9] was 10%. For the same compound, the Sperm [4, 9] was 0.56 mL, the “Motility of the spermatozoa” value [4, 10] was “good” and the No. of spermatozoa [4, 10] was 2.9 10^6 /mm^3. For the same compound, the “Ratio of dead + deficient cells” value [4, 10] was 12%, the Sperm [4, 10] was 0.30 mL and the “Motility of the spermatozoa” value [4, 11] was “good”. For the same compound, the No. of spermatozoa [4, 11] was 2.9 10^6 /mm^3, the “Ratio of dead + deficient cells” value [4, 11] was 14% and the Sperm [4, 11] was 0.23 mL. For the same compound, the “Motility of the spermatozoa” value [4, 12] was “weak”, the No. of spermatozoa [4, 12] was 2.1 10^6 /mm^3 and the “Ratio of dead + deficient cells” value [4, 12] was 19%. The “Motility of the spermatozoa” value [4, 13] was “weak”, the No. of spermatozoa [4, 13] was 2.3 10^6 /mm^3 and the “Ratio of dead + deficient cells” value [4, 13] was 20%. For the same compound, the Sperm [4, 13] was 0.25 mL, the “Motility of the spermatozoa” value [4, 14] was “good” and the No. of spermatozoa [4, 14] was 3.1 10^6 /mm^3. The “Ratio of dead + deficient cells” value [4, 14] was 17%, the Sperm [4, 14] was 0.44 mL and the “Motility of the spermatozoa” value [4, 15] was “good”. For the same compound, the No. of spermatozoa [4, 15] was 3.0 10^6 /mm^3, the “Ratio of dead + deficient cells” value [4, 15] was 14% and the Sperm [4, 15] was 0.33 mL. For the same compound, the Sperm ([4]; "Landes" ganders, 0.5 μg/kg on January 28, 30, February 1, sampling January 15 (before treatment)) was 0.19 mL, the “Motility of the spermatozoa” value [4, 16] was “medium” and the No. of spermatozoa [4, 16] was 2.2 10^6 /mm^3. The “Ratio of dead + deficient cells” value [4, 16] was 19%, the Sperm [4, 16] was 0.32 mL and the “Motility of the spermatozoa” value [4, 17] was “good”. For the same compound, the No. of spermatozoa [4, 17] was 2.0 10^6 /mm^3, the “Ratio of dead + deficient cells” value [4, 17] was 16% and the Sperm [4, 17] was 0.45 mL. The “Motility of the spermatozoa” value [4, 18] was “medium”, the No. of spermatozoa [4, 18] was 2.0 10^6 /mm^3 and the “Ratio of dead + deficient cells” value [4, 18] was 19%. For the same compound, the Sperm [4, 18] was 0.38 mL, the “Motility of the spermatozoa” value [4, 19] was “medium” and the No. of spermatozoa [4, 19] was 2.2 10^6 /mm^3. The “Ratio of dead + deficient cells” value [4, 19] was 17%, the Sperm [4, 19] was 0.35 mL and the “Motility of the spermatozoa” value [4, 20] was “weak”. For the same compound, the No. of spermatozoa [4, 20] was 1.9 10^6 /mm^3, the “Ratio of dead + deficient cells” value [4, 20] was 23% and the “Motility of the spermatozoa” value [4, 21] was “medium”. The No. of spermatozoa [4, 21] was 2.0 10^6 /mm^3, the “Ratio of dead + deficient cells” value [4, 21] was 23% and the Sperm [4, 21] was 0.43 mL. For the same compound, the “Motility of the spermatozoa” value [4, 22] was “good”, the No. of spermatozoa [4, 22] was 1.9 10^6 /mm^3 and the “Ratio of dead + deficient cells” value [4, 22] was 20%. For the same compound, the Sperm [4, 22] was 0.18 mL, the “Motility of the spermatozoa” value [4, 23] was “medium” and the No. of spermatozoa [4, 23] was 1.8 10^6 /mm^3. The “Ratio of dead + deficient cells” value [4, 23] was 19%, the Sperm [4, 23] was 0.20 mL and the “increase of the amount of sperm usable for artificial insemination” value [5] was 2.5 fold. The “motility of spermatozoa in excess of the mean value (76%) of sperm from good males” value ([5]; in average, within 4 weeks after the treatment) was 10%, the “libido of the animals” value ([5]; low-libido male angora rabbits, within 4 weeks after the treatment) was “significantly increased” and the “sperm production relative to the average of sperm obtained from good males useful for breeding” value ([5]; weighed in ml, within 4 weeks after the treatment) was 80%.

Reference: patent US4751215A, “Process for increasing the sexual activity of birds and useful domestic mammals and for preparing spermatozoa suitable to their propagation” (INNOFINANCE Altalanos Innovacios Penzintezet, priority 1985, dated 1988)
